{"source": "PubChem BioAssay AID2305", "about": "(GlaxoSmithKline (GSK), 2010)", "note": "Where a SMILES comes first, the peptide text is derived from it."}
{"tested_on": "P. falciparum 3D7 growth, pLDH absorbance", "assay": "P. falciparum 3D7 growth inhibition, dose response, strain 3D7 (AID 2305)", "units": {"IC50": "nM"}}
{"smiles": "O=C(NCc1cccc(F)c1)Nc1cccc(-c2cccc(-c3nc4ccc(C(F)(F)F)cc4[nH]3)c2)c1", "IC50": 330}
{"smiles": "O=c1cc(NCCCN(Cc2cc3c(Cl)cc(Cl)cc3[nH]2)Cc2cc3c(Cl)cc(Cl)cc3[nH]2)[nH]c2ccccc12", "IC50": 120}
{"smiles": "c1ccc(CN2CCCN(c3ccc4c(c3)CCN(Cc3ccc(-c5ncc[nH]5)cc3)CC4)CC2)cc1", "IC50": 760}
{"smiles": "O=C(/C=C/c1cccc(Cl)c1)NCCCCCN1CCC(c2c[nH]c3ccccc23)CC1", "IC50": 990}
{"smiles": "CN1CCC(c2ccc(NC(=O)c3ccc(-c4cccc(C(F)(F)F)c4)o3)cc2)CC1", "IC50": 1130}
{"smiles": "Cc1cccc2[nH]c(-c3cccc(-c4ccc(NC(=O)C(C)(C)c5ccccn5)cc4)c3)nc12", "IC50": 690}
{"smiles": "COc1cc(C2=NN(S(=O)(=O)c3c(Cl)cc(Cl)cc3Cl)CCCC2)ccc1Cl", "IC50": 290}
{"smiles": "Cc1[nH]c(C)c(-c2ccc(-c3ccc(Cl)cc3)nc2)c(=O)c1Cl", "IC50": 110}
{"smiles": "Cc1cccc2[nH]c(-c3ccc(-c4ccc(NC(=O)Nc5ccc(F)c(F)c5F)cc4)s3)nc12", "IC50": 180}
{"smiles": "CCC(C)c1ccc(O)c(NC(=O)c2cncc(Br)c2)c1", "note": "(stereo unspecified)", "IC50": 800}
{"smiles": "O=C(Nc1ccc(-c2nc3ccccc3[nH]2)cc1)C1CCN(Cc2cccc(F)c2F)CC1", "IC50": 1100}
{"smiles": "COC(=O)c1ccc2c(c1)nc(Nc1cccc(F)c1)n2CC(O)c1ccccn1", "note": "(stereo unspecified)", "IC50": 730}
{"smiles": "N#Cc1ccc2c(c1)CN(CCCCNC(=O)c1ccc(-c3ccccc3)cc1)CC2", "IC50": 890}
{"smiles": "O=C(/C=C/c1cc(C(F)(F)F)ccc1F)N1CCC(CN2CCC(c3c[nH]c4ccccc34)CC2)CC1", "IC50": 990}
{"smiles": "CC[C@H](C)CNCc1ccc(OCc2cccc(COc3ccc(CNC[C@@H](C)CC)cc3I)c2)c(I)c1", "IC50": 400}
{"smiles": "CCC(C)(C)N[C@@H](C)[C@@H](O)c1ccc(C(F)(F)F)cc1", "IC50": 750}
{"smiles": "O=C(Nc1ccc(Oc2ccccc2)cc1)N[C@H]1CCN(Cc2ccc(OCCCN3CCCCC3)cc2)C1", "IC50": 180}
{"smiles": "c1ccc(-c2ccc(-c3nc4ccccc4[nH]3)cc2)cc1", "IC50": 810}
{"smiles": "NC(=S)Cc1ccc2c(c1)OCO2", "IC50": 280}
{"smiles": "NC(=O)c1ccc(NCC(=O)Nc2cccc(-c3cccc(-c4nc5ccc(F)cc5[nH]4)c3)c2)cc1", "IC50": 870}
{"smiles": "Fc1cccc(COc2ccc(Nc3ncnc4sc(C#C[C@H]5CC[C@H](CNCC(F)(F)F)N5)cc34)cc2Cl)c1", "IC50": 1420}
{"smiles": "COc1ccc(-c2cccc(NC(=O)c3ccc(Cl)cc3)c2)cc1CNC(C)C", "IC50": 690}
{"smiles": "Clc1ccc2c(NCc3ccccc3)ccnc2c1", "IC50": 340}
{"smiles": "CCc1cccc2c(C#N)cn(CC(=O)Nc3ccc(OC)cc3)c12", "IC50": 770}
{"smiles": "COc1ccc(C(=O)Nc2cc(Cl)c3c(c2)C2CCCN2CC3)cc1C(F)(F)F", "note": "(stereo unspecified)", "IC50": 750}
{"smiles": "c1csc(-c2nc(N3CCCC3)ncc2-c2ccsc2)n1", "IC50": 210}
{"smiles": "COCCNCc1ncsc1-c1ccc2c(Nc3cc(O)c(Cl)cc3F)ccnc2c1", "IC50": 550}
{"smiles": "COc1ccccc1NC(=O)OC(COc1ccc(N)cc1)CN1CC=C(c2ccccc2)CC1", "note": "(stereo unspecified)", "IC50": 1040}
{"smiles": "CN(C)c1ccc(CN2CCC(NC(=O)c3ccc(-c4ccc(N(C)C)cc4)s3)CC2)cc1", "IC50": 1070}
{"smiles": "COc1cccc(C(=O)Nc2nonc2-c2ccc(OC)c(OC)c2)c1", "IC50": 800}
{"smiles": "CN(C)c1cccc2c(S(=O)(=O)Nc3cccc(CCN4CCC(N5CCCCC5)CC4)c3)cccc12", "IC50": 980}
{"smiles": "O=C(Nc1ccc(-c2ccccc2)cc1)Nc1cccc(Cn2ncc(N3CCNCC3)c(Cl)c2=O)c1", "IC50": 460}
{"smiles": "COc1cc(Cc2cnc(NCCN3CCNCC3)nc2N)ccc1OCc1ccc(C(F)(F)F)cc1", "IC50": 920}
{"smiles": "O=C(NCc1ccccc1)c1nn(CCCN2CCC3(CC2)C(=O)NCN3c2ccccc2)cc1-c1ccc(Cl)c(Cl)c1", "IC50": 1050}
{"smiles": "c1ccc(OCCCCN2CCCCC2)cc1", "IC50": 540}
{"smiles": "COc1ccc2nccc([C@@H](O)CN3CCC(NCC(=O)Nc4cc(F)cc(F)c4)CC3)c2n1", "IC50": 910}
{"smiles": "Cc1ccc(CNC(=O)[C@H](Cc2ccccc2)Nc2cc(C)nc(NCC3CCCCC3)n2)cc1", "IC50": 900}
{"smiles": "CCOc1ccccc1N1CCN(CCCNC(=O)/C(=C/C=C/c2cc3cc(Cl)c(Cl)cc3[nH]2)OC)CC1", "IC50": 850}
{"smiles": "CCCN(CCC)CCOc1ccc(C(O)(C#CC(O)(c2ccc(OCCN(CCC)CCC)cc2)c2cccc(Cl)c2)c2cccc(Cl)c2)cc1", "note": "(stereo unspecified)", "IC50": 790}
{"smiles": "c1ccc(OCCOc2ccc(Nc3ccnc4cc5ccccc5cc34)cc2)cc1", "IC50": 250}
{"smiles": "CCOC(=O)c1ccc(CC(C)NCC(O)c2cccc(C(F)(F)F)c2)cc1", "note": "(stereo unspecified)", "IC50": 220}
{"smiles": "O=C(NCCCCCN1CCC(c2c[nH]c3ccccc23)CC1)Nc1cccc(I)c1", "IC50": 990}
{"smiles": "C=CCC(C)n1ncc2c3c(N)nc(N)nc3ccc21", "note": "(stereo unspecified)", "IC50": 50}
{"smiles": "N#CCCN1CCN(Cc2cccc(-c3ccc(-c4nc5ccc(C(F)(F)F)cc5[nH]4)cc3)c2)CC1", "IC50": 740}
{"smiles": "Cc1cccc(NC(=O)NC2CCN(CCCCCNC(=O)/C=C/c3ccc(Cl)c(Cl)c3)CC2)c1", "IC50": 750}
{"smiles": "CS(=O)(=O)n1c(CN2CCN(c3ncc(C(F)(F)F)cc3Cl)CC2)nc2ccccc21", "IC50": 1060}
{"smiles": "CC[C@H]1CN2CC[C@H]1C[C@@H]2[C@H](O)c1ccnc2ccc(O)cc12", "IC50": 1040}
{"smiles": "COc1ccc2nccc([C@@H](O)CN3CCC(NC(=O)C(c4cc5ccccc5o4)N4CCN(c5ccccc5OC)CC4)CC3)c2c1", "note": "(stereo partly specified)", "IC50": 310}
{"smiles": "CCCc1cc(NC2CCN(C)CC2)nc(Nc2ccc(F)cc2)n1", "IC50": 800}
{"smiles": "COc1cc(CN=C(Nc2ccc(-c3ccccc3)cc2)Nc2ccc(C#N)cc2O)cc(OC)c1", "IC50": 720}
{"smiles": "COCCOc1ccc(C(F)(F)F)cc1NC(=O)Cc1c(F)cccc1Cl", "IC50": 1000}
{"smiles": "CN(/N=C/c1ccc(Cl)cc1)c1nc(NCCc2ccc(O)cc2)nc(N2CCNCC2)n1", "IC50": 1350}
{"smiles": "CCc1cn(CCOC)c2ccc(C(=O)N[C@@H](Cc3ccccc3)[C@H](O)CNC(C)(C)CCCC(C)C)cc12", "IC50": 570}
{"smiles": "CCCCCCCCCCS(=O)(=O)N[C@H](COCc1cccc(Oc2ccccc2)c1)COP(=O)(O)OC", "IC50": 1020}
{"smiles": "c1ccc(CN2CCN(CCNc3c4ccccc4nc4ccccc34)CC2)cc1", "IC50": 880}
{"smiles": "COCc1nc(-c2ccccc2)nc(N2CCN(C(=O)NC(C)C)CC2)c1Cc1ccccc1F", "IC50": 1000}
{"smiles": "O=S(=O)(/C=C/c1ccccc1)N(Cc1ccc(-c2ccc(CNCCc3ccccn3)cc2)cc1)CC1CCCCN1", "note": "(stereo unspecified)", "IC50": 740}
{"smiles": "CN(C)CCCOc1cccc(NC(=O)Nc2ccc(Cl)c(Cl)c2)c1", "IC50": 960}
{"smiles": "COc1cc(C(=O)NC2CCN(Cc3ccccc3)CC2)ccc1-c1cc2cc(Cl)c(Cl)cc2[nH]1", "IC50": 230}
{"smiles": "Cc1ccc2c(Cc3cnc(N)nc3N)cc(C)c(N)c2n1", "IC50": 1420}
{"smiles": "COc1cccc(-c2cnc(N)c(-c3nc4ccc(C(F)(F)F)cc4[nH]3)c2)c1", "IC50": 650}
{"smiles": "CCN(CC)CCN(Cc1ccc(-c2ccc(C(F)(F)F)cc2)cc1)C(=O)c1ccc(-c2ccc(C#N)cc2)cc1", "IC50": 1110}
{"smiles": "CCCN1CCN(c2ccccc2NS(=O)(=O)c2ccc(C(=O)Nc3ccc(Cl)cc3)cc2)CC1", "IC50": 1140}
{"smiles": "Cc1cccc(C)c1NC1=NC(=S)N(c2cccc(Cl)c2)C12CCC(C(C)(C)C)CC2", "note": "(stereo unspecified)", "IC50": 760}
{"smiles": "CN(C)CCOc1cc(NC(=O)Nc2ccc(-c3ccncc3)c(Cl)c2)ccc1I", "IC50": 140}
{"smiles": "COCCN1CCC(C(=O)NCC(C)(C)c2nc(-c3ccc(Br)c(O)c3)c(-c3ccncc3)[nH]2)CC1", "IC50": 910}
{"smiles": "O=C(NCC(=O)N1CCC[C@H]1C(=O)O)[C@@H](Cc1ccccc1)NC(=O)[C@@H]1CCCN1C(=O)CCCc1ccc(O)cc1", "note": "(HELM PEPTIDE1{[O=C(CCCc1ccc(O)cc1)[*:2]].P.[dF].G.P}$$$$V2.0)", "IC50": 1050}
{"smiles": "CN(CCO)Cc1cccc(-c2ccc(NC(=O)c3cccc(C#N)c3)cc2)c1", "IC50": 800}
{"smiles": "COc1ccc(CN2CCC(CNCc3cccc(-c4ccccc4)c3)CC2)cc1", "IC50": 240}
{"smiles": "Nc1ncc(-c2ccc3ncccc3c2)c(N)n1", "IC50": 920}
{"smiles": "Cc1ccccc1C1CCN(C2CCC(NC(=O)/C=C/c3ccc(C(F)(F)F)cc3F)CC2)CC1", "note": "(stereo unspecified)", "IC50": 900}
{"smiles": "O=C(COc1ccc(Cl)c(Cl)c1)NCCCCCN1CCCN(C(=O)Nc2cc(Cl)cc(Cl)c2)CC1", "IC50": 1140}
{"smiles": "CS(=O)(=O)NCCCNCc1cccc(-c2ccc(-c3nc4ccc(C(F)(F)F)cc4[nH]3)cc2)c1", "IC50": 1000}
{"smiles": "CC(C)=CC1C(C(=O)n2c(N)nc3ccccc32)C1(C)C", "note": "(stereo unspecified)", "IC50": 190}
{"smiles": "CCCC(=O)Nc1ccc(Cl)c(NC(=O)COc2cc(C)ccc2C(C)C)c1", "IC50": 930}
{"smiles": "COc1cc2nc(N3CC(C)N(C(=O)Cc4ccc(-c5ccccc5)cc4)C(C)C3)nc(N)c2cc1OC", "note": "(stereo unspecified)", "IC50": 800}
{"smiles": "Cc1ccc(C(NC(=O)c2ccccc2)c2ccc3cccnc3c2O)cc1", "note": "(stereo unspecified)", "IC50": 960}
{"smiles": "O=C(CCCCCNC(=O)c1ccc(O)c(-c2ccc(Cl)c(Cl)c2)c1)NC1CCCCCC1", "IC50": 950}
{"smiles": "O=S(=O)(c1ccc(Oc2ccccc2)cc1)N(CCC(O)(C(F)(F)F)C(F)(F)F)Cc1cccc(O)c1", "IC50": 490}
{"smiles": "O=C1OC(c2cc3ccccc3n2S(=O)(=O)c2ccccc2)(c2cc3ccccc3n2S(=O)(=O)c2ccccc2)c2ccccc21", "IC50": 850}
{"smiles": "C[C@H](Cc1ccc(OCCCCCCOc2ccccc2)cc1)NC[C@@H](O)c1cc(Br)no1", "IC50": 880}
{"smiles": "Cc1ccc(NC(=O)c2ccc(C(=O)NC3CCN(CC4CCCCC4)CC3)cc2)cc1", "IC50": 900}
{"smiles": "CCC(C)NS(=O)(=O)c1ccc2nc(Nc3cccc(SC)c3)n(C(C)C(C)C)c2c1", "note": "(stereo unspecified)", "IC50": 500}
{"smiles": "CC[C@H]1CN2CC[C@@H]1C[C@H]2[C@H](O)c1cc(-c2ccc(F)cc2)nc2ccc(O)cc12", "IC50": 140}
{"smiles": "Cc1ccc(O)c(-c2cc(C(=O)Nc3ccc(S(=O)(=O)N4CCCCC4)cc3)[nH]n2)c1", "IC50": 810}
{"smiles": "CC(Cc1ccc(C(=O)N2CCN(C(=O)c3ccc(CC(C)NCCc4cccc(Cl)c4)cc3)CC2)cc1)NCCc1cccc(Cl)c1", "note": "(stereo unspecified)", "IC50": 680}
{"smiles": "NC(N)=Nc1nc(-c2cccc(NC(=O)NCC(c3ccccc3)c3ccccc3)c2)cs1", "IC50": 790}
{"smiles": "CCc1cn(CCc2ccccc2)c2ccc(C(=O)N[C@@H](Cc3ccccc3)[C@H](O)CNC(C)(C)CCCC(C)C)cc12", "IC50": 220}
{"smiles": "O=S(=O)(Nc1ccc2nccc(N3CCNCC3)c2c1)c1ccc2c(Cl)cccc2c1", "IC50": 570}
{"smiles": "COc1ccccc1Nc1nc(C)cc(NCc2ccc(-c3c(C)noc3C)cc2)n1", "IC50": 870}
{"smiles": "COc1ccc(CN2CCCN(Cc3cccc(C(=O)Nc4ccc(C)c(F)c4)c3)CC2)cc1", "IC50": 1310}
{"smiles": "CCc1c(CCNCCCCCCNCCc2ccc(Br)cc2)ccc(OC)c1OC", "IC50": 230}
{"smiles": "Nc1ccc(-c2ccc(NC(=O)Nc3ccccc3)cc2)cn1", "IC50": 920}
{"smiles": "CC1(C)N=C(N)N=C(N)N1c1cccc(I)c1", "IC50": 130}
{"smiles": "COc1ccc(F)cc1-c1ccc(C(=O)N2CCCN(c3ccc(C(F)(F)F)cn3)CC2)cc1", "IC50": 160}
{"smiles": "Cc1ccc(O)cc1Nc1ccnc2cc(-c3ccccc3)ccc12", "IC50": 1070}
